{
  "source": "patent US20080161398A1",
  "about": "“STIMULATION OF IN VIVO PRODUCTION OF PROTEINS” (Nutricia N.V., priority 2002, published 2008)",
  "system": "mixed muscle protein synthesis",
  "assay": "Fractional synthetic rate of mixed muscle protein synthesis in anaesthetized rats after intravenous infusion of amino acid compositions",
  "format": "in vivo",
  "method": "Four groups of anaesthetized rats were given an amino acid composition. The same total amount of amino acids was given to each group by intravenous infusion. A fifth group was added to the study as a control group. The first group was given a balanced mixture of amino acids, commercially available under the trade name Travasol. This mixture contains less than 5% leucine. The second group was given 75% of Travasol and 25% of leucine. The third group was given 65% of Travasol and 35% of leucine, and the fourth group was given only leucine. The in fractional synthetic rate of mixed muscle protein synthesis (FSR (%/h)) was measured as described by Ferrando et al., Am. J. Physiol., 275:E864-E871, 1998, the contents of which are incorporated herein by reference.",
  "data": [
    {"smiles": "CC(C)C[C@H](N)C(=O)O", "note": "[Leucine alone, leucine]", "values": [
      {"measurement": "response in protein production", "setting": "administration of L-leucine alone, as shown in the appended examples", "value": "does not induce the desired response in protein production"},
      {"measurement": "FSR (%/h), fractional synthetic rate of mixed muscle protein synthesis", "setting": "anaesthetized rats, intravenous infusion, same total amount of amino acids given to each group", "value": "0.0767 ± 0.0204", "unit": "%/h"}
    ]}
  ]
}
